target: T1, melatonin ML1A receptor (Homo sapiens, UniProt P48039); assay: Melatonergic receptor binding activity (2-[125I]-iodomelatonin, membrane homogenates of NIH-3T3 cells expressing the ML1A receptor); details: 37° C., 1 hour, class symbols, read-out: Melatonin Binding Affinity (IC50 Range)
T1 construct: expressed in transfected cells; membrane homogenates
Experimental: Melatonergic Receptor Binding Activity
(a) TME=50 mM Tris buffer containing 12.5 mM MgCl2, and 2 mM EDTA, pH 7.4 at 37° C. with concentrated HCl.
(b) Wash buffer: 20 mM Tris base containing 2 mM MgCl2. pH 7.4 at room temperature.
(c) 10^-4 M melatonin (10^-5 M final concentration).
(d) 2-[^125 I]-iodomelatonin, […] final concentration
2. Membrane Homogenates. The melatonin ML1A receptor cDNA was subcloned into pcDNA3 and introduced into NIH-3T3 cells using Lipofectamine. Transformed NIH-3T3 cells resistant to geneticin (G-418) were isolated, and single colonies expressing high levels of 2[^125 Iiodomelatonin binding were isolated. Cells are maintained in DMEM supplemented with 10% calf serum and G-418 (0.5 g/liter). Cells are grown to confluency in T-175 flasks, scraped using Hank's balanced salt solution, and frozen at -80° C. For preparing membrane homogenates,pellets are thawed on ice, and resuspended in TME buffer in the presence of 10 μg/ml aprotinin and leupeptin, and 100 μM phenylmethylsulfonylfluoride. The cells were then homogenized using a dounce homogenizer, and centrifuged. The resulting pellet was resuspended with dounce homogenizer in TME (supplemented with the above protease inhibitors) and frozen. On the day of assay, the small aliquot was thawed on ice and resuspended in ice cold TME (1:50-1:100 v/v) and held on ice until assayed.
3. Incubation: 37° C. for 1 hour. Reaction is terminated by filtration. Filters are washed 3 times.
4. References: Reppert, S. M., and Ebisawa, R. (1994). Neuron, 13, 1177-1185.

T1 sequence (P48039 whole entry): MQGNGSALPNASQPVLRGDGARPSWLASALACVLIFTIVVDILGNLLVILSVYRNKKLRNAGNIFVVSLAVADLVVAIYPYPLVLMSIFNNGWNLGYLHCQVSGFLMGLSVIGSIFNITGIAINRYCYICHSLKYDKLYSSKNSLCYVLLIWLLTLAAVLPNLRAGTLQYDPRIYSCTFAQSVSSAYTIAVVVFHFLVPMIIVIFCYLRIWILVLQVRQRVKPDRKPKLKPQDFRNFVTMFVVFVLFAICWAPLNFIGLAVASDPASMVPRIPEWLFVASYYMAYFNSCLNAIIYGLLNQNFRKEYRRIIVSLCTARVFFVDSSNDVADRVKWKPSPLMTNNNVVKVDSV

SMILES | IC50
CCC(=O)NCC1CC12c1cc(OC)ccc1-c1ccc(OC)cc12 (single isomer, unassigned; (+)) [Example 5, (+)-N-[(2',7'-Dimethoxyspiro[cyclopropane-1,9'-[9H]fluoren]-2-yl)methyl]propanamide] | < 10 nM
CCC(=O)NCC1CC12c1cc(OC)ccc1-c1ccc(OC)cc12 (single isomer, unassigned; (-)) [Example 4, (-)-N-[(2'7'-Dimethoxyspiro[cyclopropane-1,9'-[9H]fluoren]-2-yl)methyl]propanamide] | < 10 nM
CCC(=O)NCC1CC12c1cc(OC)ccc1-c1ccc(OC)cc12 (centres unmarked) [Example 3, N-[(2',7'-Dimethoxyspiro[cyclopropane-1,9'-[9H]fluoren]-2-yl)methyl]propanamide] | < 10 nM
COc1ccc2c(c1)C1(CC1CNC(C)=O)c1cc(OC)ccc1-2 (centres unmarked) [Example 6, N-[(2',7'-Dimethoxyspiro[cyclopropane-1,9'-[9H]fluoren]-2-yl)methyl]acetamide] | < 10 nM

Second part, the molecule after the results:

IC50 | SMILES
< 10 nM | CCCC(=O)NCC1CC12c1cc(OC)ccc1-c1ccc(OC)cc12 (centres unmarked) [Example 7, N-[(2',7'-Dimethoxyspiro[cyclopropane-1,9'-[9H]fluoren]-2-yl)methyl]butanamide]
< 10 nM | COc1ccc2c(c1)C1(CC1CNC(=O)C1CC1)c1cc(OC)ccc1-2 (centres unmarked) [Example 8, N-[(2',7'-Dimethoxyspiro[cyclopropane-1,9'-[9H]fluoren]-2-yl)methyl]cyclopropane carboxamide]
10 to 100 nM | COc1ccc2c(c1)C1(CC1CNC(=O)C1CCC1)c1cc(OC)ccc1-2 (centres unmarked) [Example 9, N-[(2',7'-Dimethoxyspiro[cyclopropane-1,9'-[9H]fluoren]-2-yl)methyl]-cyclobutane carboxamide]
100 to 250 nM | COc1ccc2c(c1)C1(CC1CNC(=O)C(C)(C)C)c1cc(OC)ccc1-2 (centres unmarked) [Example 10, N-[(2',7'-Dimethoxyspiro[cyclopropane-1,9'-[9H]fluoren]-2-yl)methyl]-2,2-dimethylpropanamide]
< 10 nM | CCC(=O)NCC1CC12c1cc(F)ccc1-c1ccc(OC)cc12 (stereo not drawn) [Example 12, cis-N-[(2'-Fluoro-7'-methoxy-spiro[cyclopropane-1,9'-[9H]fluoren]-2-yl)methyl]propanamide]
< 10 nM | CCC(=O)NCC1CC12c1cc(F)ccc1-c1ccc(OC)cc12 (stereo not drawn) [Example 13, trans-N-[(2'-Fluoro-7'-methoxy-spiro[cyclopropane-1,9'-[9H]fluoren]-2-yl)methyl]propanamide]

tested on: circadian rhythms in rats; assay: not given; details: exogenous administration, Cassone, et al., 1986; cited from earlier work

SMILES | synchronization of circadian rhythms
COc1ccc2[nH]cc(CCNC(C)=O)c2c1 [melatonin, N-acetyl-5-methoxytryptamine] | found to synchronize circadian rhythms in rats

Reference: US6028112A, “Spirocyclopropyl fluorenes as melatonergic agents” (Bristol-Myers Squibb Company, priority 1998, dated 2000)
